Measured values reported in patent publication US7550463B2, “Carbamoylpyridone derivatives having inhibitory activity against HIV integrase” (Shionogi & Co., Ltd., priority 2004, dated 2009).

Tests used:
[1] = target: HIV integrase (Human immunodeficiency virus type 1 group M subtype B, UniProt P04585); assay: HIV integrase inhibitory activity assay (immunoplate, substrate DNA / target DNA, OD 405 nm); format: biochemical; conditions: read-out: Integrase inhibitory activity (IC50, ng/ml) (converted)
Method: The HIV integrase inhibitory activity was examined based on an assay method shown below.
(1) Preparation of DNA Solution
According to the same method as the method described in Test Example 1 of WO 2004/024693, a substrate DNA solution (2 pmol/μl) and a target DNA solution (5 pmol/μl) were prepared. […] Each sequence of a substrate DNA and a target DNA is as described in the same Test Example.
(2) Measurement of Inhibition Rate (IC50 Value)
Streptavidin (manufactured by Vector Laboratories) was dissolved in a 0. 1M carbonate buffer (composition: 90 mM Na2CO3, 10 mM NaHCO3 )to a concentration of 40 μg/ml. Each 50 μl of this solution was added to a well of an immunoplate (manufactured by NUNC), and this was allowed to stand at 4° C. overnight to perform adsorption. Then, each well was washed with, a phosphate buffer (composition: 13.7 mM NaCl, 0.27 mM KCl, 0.43 mM. Na2HPO4, 0.14 mM KH2PO4) two times, 300 μl of a phosphate buffer containing 1% skim milk was added, and blocking was performed for 30 minutes. […]
Each plate was incubated at 30° C. for 10 minutes, and the reaction solution was discarded, followed by washing with a phosphate buffer two times. […] Inhibition rate (%)=100[1−{(C abs.−NC abs.)/(PC abs.−NC abs.)}] • C abs.; absorbance of well of compound • NC abs.: absorbance of NC • PC abs.: absorbance of PC

Row | melting point [°C] | SMILES | IC50 [1] [nM]
1 | 279 to 280 | O=C(NCc1ccc(F)cc1)c1[nH]cc(C(=O)NCc2ccc(F)cc2)c(=O)c1O | 
2 |  | COC(=O)c1[nH]cc(C(=O)NCc2ccc(F)cc2)c(=O)c1O [Compound A-1a, Methyl 5-(4-fluorobenzylcarbamoyl)-3-hydroxy-4-oxo-1,4-dihydropyridine-2-carboxylate] | 20
3 |  | O=C(O)c1[nH]cc(C(=O)NCc2ccc(F)cc2)c(=O)c1O [Compound A-3] | 10.1
